Target: E. coli DNA Gyrase (Escherichia coli, UniProt P0AES4+P0AES6)
Test: Inhibition assay against E. coli DNA gyrase (plasmid supercoiling, agarose gel)
Type: biochemical
Details: 1 to 50 μM compound
Description: Inhibition Assays Against E. coli DNA Gyrase:
The reaction mixture (30 μl) contained 35 mM Tris-HCl at pH 7.5, 24 mM KCl, 4 mM MgCl2, 2 mM DTT, 1.75 mM ATP, 5 mM spermidine, 0.1 mg/ml BSA, 6.5% glycerol, 250 ng of the relaxed plasmid pBAD-GFPuv, 0.5 units of E. coli DNA Gyrase, and one of the compounds at a final concentration that ranges from 1 to 50 μM. All components were assembled on ice and incubated for 30 minutes at 37° C. After the incubation, the reactions were terminated by extraction with an equal volume of phenol. The topological state of the DNA samples was analyzed with 1% agarose gel electrophoresis in 1×TAE buffer, pH 7.8. Following electrophoresis, the agarose gel was stained with Ethidium Bromide, destained, and photographed under UV light. The intensity of DNA topoisomers was determined using KODAK 1D Image Analysis Software.

Chain of E. coli DNA Gyrase (P0AES4 whole entry, one chain of several): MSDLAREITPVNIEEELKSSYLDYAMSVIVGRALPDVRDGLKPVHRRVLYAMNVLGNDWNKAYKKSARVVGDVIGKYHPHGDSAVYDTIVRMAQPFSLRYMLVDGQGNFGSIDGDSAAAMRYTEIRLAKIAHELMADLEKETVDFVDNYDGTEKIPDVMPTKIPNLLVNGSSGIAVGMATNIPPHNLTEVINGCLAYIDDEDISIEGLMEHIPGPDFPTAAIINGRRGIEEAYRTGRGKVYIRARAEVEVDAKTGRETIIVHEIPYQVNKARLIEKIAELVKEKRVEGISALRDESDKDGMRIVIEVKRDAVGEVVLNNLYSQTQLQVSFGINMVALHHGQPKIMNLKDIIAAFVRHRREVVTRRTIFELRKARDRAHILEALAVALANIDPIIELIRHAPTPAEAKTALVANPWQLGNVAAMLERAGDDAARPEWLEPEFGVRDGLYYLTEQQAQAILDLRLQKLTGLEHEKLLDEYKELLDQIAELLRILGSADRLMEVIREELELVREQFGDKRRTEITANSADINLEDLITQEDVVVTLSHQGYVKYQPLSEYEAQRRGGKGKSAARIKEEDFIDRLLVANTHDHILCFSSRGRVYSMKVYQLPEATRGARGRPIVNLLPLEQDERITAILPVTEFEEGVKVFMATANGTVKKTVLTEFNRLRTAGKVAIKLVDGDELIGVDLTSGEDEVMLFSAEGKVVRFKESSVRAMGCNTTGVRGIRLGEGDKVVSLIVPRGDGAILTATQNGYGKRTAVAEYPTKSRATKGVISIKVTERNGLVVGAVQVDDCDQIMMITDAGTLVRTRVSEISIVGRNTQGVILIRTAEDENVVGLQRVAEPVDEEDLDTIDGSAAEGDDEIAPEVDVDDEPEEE

SMILES: CN1CCN(c2ccc3[nH]c(-c4ccc5[nH]c(-c6ccc(O)cc6)nc5c4)nc3c2)CC1 [Hoechst 33258, reference compound]
- inhibition of DNA gyrase's activities: did not inhibit

Reference: US9920014B2, “Selective inhibition of bacterial topoisomerase I” (THE FLORIDA INTERNATIONAL BOARD OF TRUSTEES MODESTO A. …, priority 2013, dated 2018)
